Results: ChEMBL document CHEMBL1139089, “The evaluation and structure-activity relationships of 2-benzoylaminobenzoic esters and their analogues as anti-inflammatory and anti-platelet aggregation agents” (Bioorg Med Chem Lett, 2007)

How the values were obtained:
Format in all cases: functional, cell-based
[1] = Antiinflammatory activity in neutrophils assessed as inhibition of oxygen radical generation; conditions: Homo sapiens, Neutrophil
[2] = Antiinflammatory activity in neutrophil assessed as inhibition of fMLP induced elastase release; conditions: Homo sapiens
[3] = Anticoagulant activity assessed as inhibition of thrombin induced rabbit platelet aggregation; conditions: Oryctolagus cuniculus
[4] = Anticoagulant activity assessed as inhibition of arachidonic acid induced rabbit platelet aggregation; conditions: Oryctolagus cuniculus

SMILES	IC50 [1]	IC50 [2]	IC50 [3]	IC50 [4]
COC(=O)c1ccc(Cl)cc1NC(=O)c1ccc(C)cc1	> 40 µM	> 40 µM	> 100 µM	> 100 µM
COC(=O)c1c(Cl)cccc1NC(=O)c1ccccc1Cl	> 40 µM	> 40 µM	> 100 µM	80.8 µM
COC(=O)c1ccccc1NC(=O)c1ccc(F)cc1	> 40 µM	> 40 µM	> 100 µM	> 100 µM
COC(=O)c1ccccc1NC(=O)c1cccc(Cl)c1	> 40 µM	> 40 µM	> 100 µM	> 100 µM
CCOC(=O)c1ccc(Cl)cc1NC(=O)c1ccccc1Br	> 40 µM	> 40 µM	> 100 µM	3.6 µM
COC(=O)c1cccc(Cl)c1NC(=O)c1ccccc1Cl	> 40 µM	> 40 µM	> 100 µM	> 100 µM
COC(=O)c1ccccc1NC(=O)c1ccc(OC)cc1	> 40 µM	> 40 µM	> 100 µM	> 100 µM
COC(=O)c1c(Cl)cccc1NC(=O)c1ccccc1F	> 40 µM	> 40 µM	> 100 µM	78.2 µM
COC(=O)c1cccc(Cl)c1NC(=O)c1ccccc1F	> 40 µM	> 40 µM	> 100 µM	> 100 µM
CCOC(=O)c1ccc(Cl)cc1NC(=O)c1ccccc1Cl	> 40 µM	> 40 µM	> 100 µM	0.8 µM
O=S(=O)(F)Cc1ccccc1 [PHENYLMETHYLSULFONYLFLUORIDE]	–	131 µM	–	–
CCOC(=O)c1ccc(Cl)cc1NC(=O)c1ccccc1C	> 40 µM	2.83 µM	> 100 µM	4.9 µM
CCCOC(=O)c1ccc(Cl)cc1NC(=O)c1ccccc1Br	> 40 µM	> 40 µM	> 100 µM	3.5 µM
CC(=O)Oc1ccccc1C(=O)O [ASPIRIN]	> 40 µM	> 40 µM	> 100 µM	152 µM
COC(=O)c1ccc(Cl)cc1NC(=O)c1ccccc1OC	> 40 µM	> 40 µM	> 100 µM	2.2 µM
CCOC(=O)c1ccc(Cl)cc1NC(=O)c1ccccc1OC	> 40 µM	4.31 µM	> 100 µM	4.9 µM

SMILES	IC50 [1]	IC50 [2]	IC50 [3]	IC50 [4]
COC(=O)c1ccc(Cl)cc1NC(=O)c1ccccc1C	> 40 µM	> 40 µM	> 100 µM	4.3 µM
c1ccc2c(c1)[I+]c1ccccc1-2 [DIPHENYLENEIODONIUM]	0.86 µM	–	–	–
CCCOC(=O)c1ccc(Cl)cc1NC(=O)c1ccccc1Cl	> 40 µM	> 40 µM	> 100 µM	0.7 µM
COC(=O)c1cccc(Cl)c1NC(=O)c1ccccc1C	> 40 µM	> 40 µM	> 100 µM	> 100 µM
COC(=O)c1ccc(Cl)cc1NC(=O)c1ccccc1F	> 40 µM	> 40 µM	> 100 µM	2.2 µM
COC(=O)c1ccc(Cl)cc1NC(=O)c1ccccc1Cl	> 40 µM	> 40 µM	> 100 µM	1.1 µM
COC(=O)c1ccc(Cl)cc1NC(=O)c1ccc(F)cc1	> 40 µM	> 40 µM	> 100 µM	> 100 µM
CCCOC(=O)c1ccc(Cl)cc1NC(=O)c1ccccc1C	> 40 µM	> 40 µM	> 100 µM	2.2 µM
COC(=O)c1c(Cl)cccc1NC(=O)c1ccccc1Br	> 40 µM	> 40 µM	> 100 µM	76.4 µM
COC(=O)c1ccccc1NC(=O)c1ccc(Br)cc1	> 40 µM	> 40 µM	> 100 µM	> 100 µM
CCCOC(=O)c1ccc(Cl)cc1NC(=O)c1ccccc1OC	> 40 µM	> 40 µM	> 100 µM	23.4 µM
COC(=O)c1ccccc1NC(=O)c1ccc(Cl)cc1	> 40 µM	> 40 µM	> 100 µM	> 100 µM
COC(=O)c1ccc(Cl)cc1NC(=O)c1ccc(Cl)cc1	> 40 µM	> 40 µM	> 100 µM	> 100 µM
COC(=O)c1c(Cl)cccc1NC(=O)c1ccccc1OC	> 40 µM	> 40 µM	> 100 µM	62.3 µM
COC(=O)c1ccccc1NC(=O)c1cccc(Br)c1	> 40 µM	15.4 µM	> 100 µM	> 100 µM
COC(=O)c1ccc(Cl)cc1NC(=O)c1ccc(OC)cc1	> 40 µM	> 40 µM	> 100 µM	> 100 µM

Other lines, results leading:

IC50 [1]	IC50 [2]	IC50 [3]	IC50 [4]	SMILES
> 40 µM	> 40 µM	> 100 µM	1.6 µM	CCCOC(=O)c1ccc(Cl)cc1NC(=O)c1ccccc1F
> 40 µM	> 40 µM	> 100 µM	> 100 µM	COC(=O)c1cccc(Cl)c1NC(=O)c1ccccc1Br
> 40 µM	> 40 µM	> 100 µM	> 100 µM	COC(=O)c1ccc(Cl)cc1NC(=O)c1ccc(Br)cc1
> 40 µM	> 40 µM	> 100 µM	> 100 µM	COC(=O)c1c(Cl)cccc1NC(=O)c1ccccc1C
0.65 µM	> 40 µM	> 100 µM	10.8 µM	COC(=O)c1ccccc1NC(=O)c1ccccc1F
> 40 µM	> 40 µM	> 100 µM	0.14 µM	COc1ccc2c(c1)c(CC(=O)O)c(C)n2C(=O)c1ccc(Cl)cc1 [INDOMETHACIN]
> 40 µM	> 40 µM	> 100 µM	2.6 µM	COC(=O)c1ccc(Cl)cc1NC(=O)c1ccccc1Br
7.41 µM	> 40 µM	> 100 µM	8 µM	COC(=O)c1ccccc1NC(=O)c1ccccc1OC
> 40 µM	> 40 µM	> 100 µM	> 100 µM	COC(=O)c1ccccc1NC(=O)c1cccc(OC)c1
> 40 µM	18.3 µM	> 100 µM	> 100 µM	COC(=O)c1ccccc1NC(=O)c1cccc(C)c1
> 40 µM	> 40 µM	> 100 µM	66.6 µM	COC(=O)c1cccc(Cl)c1NC(=O)c1ccccc1OC
> 40 µM	> 40 µM	> 100 µM	> 100 µM	COC(=O)c1ccccc1NC(=O)c1ccc(C)cc1
> 40 µM	> 40 µM	> 100 µM	3.8 µM	CCOC(=O)c1ccc(Cl)cc1NC(=O)c1ccccc1F
11 µM	> 40 µM	> 100 µM	11 µM	COC(=O)c1ccccc1NC(=O)c1ccccc1Cl
12 µM	> 40 µM	> 100 µM	22.9 µM	COC(=O)c1ccccc1NC(=O)c1ccccc1Br
10.6 µM	> 40 µM	> 100 µM	> 100 µM	COC(=O)c1ccccc1NC(=O)c1cccc(F)c1
0.17 µM	14.3 µM	> 100 µM	–	CCOC(=O)c1ccccc1NC(=O)c1ccccc1F
9.26 µM	> 40 µM	> 100 µM	16.6 µM	COC(=O)c1ccccc1NC(=O)c1ccccc1C
24.1 µM	> 40 µM	> 100 µM	–	CC(=O)c1ccccc1NC(=O)c1ccccc1F
